Results: patent US20250388896A1, “COMPOSITION AND METHODS FOR TRANSGENE INSERTION” (ARTISAN DEVELOPMENT LABS, INC, priority 2022, published 2025)

Tests used:
AAVS1 = assay: CAR insertion efficiency at AAVS1 in primary T-cells by flow cytometry; type: cell-based, human; settings: primary Pan T-cells; recovery medium pretreated with 2 μM M3814; 75:50 pmol gNA:MAD7, 1.5 μg μL^−1 donor template, PGA
Experimental: T-cells were isolated from human peripheral blood obtained from healthy adults by immune-magnetic negative selection using the EasySep Human T-cell Isolation Kit ([sequence] Technologies). After isolation, T-cells were activated in 25 μL mL^−1 ImmunoCult Human CD3/CD28/CD2 T-Cell Activator ([sequence] Technologies) in ImmunoCult-XF T-Cell Expansion Medium ([sequence] Technologies) containing 12.5 ng mL^−1 Human Recombinant IL-2, 5 ng mL^−1 IL-7, and 5 ng mL^−1 IL-15 ([sequence] Technologies) and seeded at 1.0×10^6 cells mL^−1. Until transfection 48 hours later, the cells were cultured at 37° C. in 5% CO2 incubators.
Donor templates comprising site-specific homology arms, respective promoter, and respective gene (GFP or Hu19 scFv-CD8α-CD28-CD3ζ CAR) were amplified from corresponding pTwist Ampicillin high-copy plasmids (Twist Bioscience) using homology arms-specific PCR primers. […] Purified HDR templates were collected and quantified on NanoDrop One Microvolume UV-Vis Spectrophotometer (ThermoFisher Scientific). […] HDR templates were collected, diluted, and concentrations quantified using Qubit dsDNA HS Assay Kit (ThermoFisher Scientific). […]

AAVS1 locus = assay: INDEL frequency at the AAVS1 locus in Jurkat cells; type: cell-based, human
Experimental: Ribonucleoprotein complexes (RNPs) were generated by incubating respective guide nucleic acids (gNAs) with MAD7 in the molar ratio of 3:2 gNA:MAD7 for 15 minutes at room temperature immediately before transfection. For Jurkat experiments, the RNP complexes were generated by mixing the respective gNA (150 pmol), MAD7 (100 pmol), and nuclease-free water, unless otherwise stated. […] Lonza 4D Nucleofector with Shuttle unit (V4SC-2960 Nucleocuvette Strips) was used for transfection, following the manufacturer's instructions. […] Extracted genomic DNA was quantified using the NanoDrop (ThermoFisher Scientific). […] The DNA was eluted from the beads with nuclease-free water and the size of the purified amplicons analyzed on a 2% agarose E-gel using the E-gel electrophoresis system (ThermoFisher Scientific). In the second PCR, unique pairs of Illumina-compatible indexes (Nextera XT Index Kit v2) were added to the amplicons using the KAPA HiFi HotStart Ready Mix (Roche). […] Sizes of the purified DNA fragments were validated on a 2% agarose gel using the E-gel electrophoresis system (ThermoFisher Scientific), quantified using Qubit dsDNA HS Assay Kit (Thermo Fisher) and then pooled in equimolar concentrations. […] The final library was sequenced on Illumina MiSeq System using the MiSeq Reagent Kit v.2 (300 cycles, 2×250 bp, paired-end reads). […]

Molecule	more efficient CAR insertion than other experiments (AAVS1)	activity of gNA targeting AAVS1 (INDEL frequency) (AAVS1 locus)
COc1ccc([C@@H](O)c2cc(-c3ncnc4cc(N5CCOCC5)ccc34)c(F)cc2Cl)nn1 [M3814]	~5 times	–
crAAVS1: highly active gNA targeting the AAVS1 safe-harbor locus (guide TTAGGATGGCCTTCTCCGACG; listed as DNA, further chemistry not given here)	–	highly active
